Here are results for 25 molecules from ChEMBL document CHEMBL1123975, “2-Phenylpyrroles as conformationally restricted benzamide analogues. A new class of potential antipsychotics. 2” (J Med Chem, 1988).

Molecules are shown by their SMILES. Some results are limits rather than exact numbers.

In one assay the target is D(2) dopamine receptor (Rattus norvegicus, UniProt P61169). The assay can be described thus: Displacement of [3H]-Spiperone from Dopamine receptor D2 in rat striatum. In general terms: In a radioligand displacement assay an active substance lowers the binding of a labelled ligand.
The test system of assay [1] is Rattus norvegicus. The assay can be described thus: Suppression of conditioned avoidance behavior in rats following p.o. administration. The conditions noted are these: po. It counts as functional.
Assay [2] deals with Rattus norvegicus. In words: Suppression of conditioned avoidance behavior in rats after ip administration. It counts as functional.
Another assay relates to Mus musculus. The assay can be described thus: Antagonism of apomorphine-induced climbing behavior in mice after ip administration. It counts as functional.
Assay [3] has as its target T1, Adrenergic receptor alpha-1 (Rattus norvegicus, UniProt P15823+P23944+P43140).
T1 sequence (P15823 whole entry): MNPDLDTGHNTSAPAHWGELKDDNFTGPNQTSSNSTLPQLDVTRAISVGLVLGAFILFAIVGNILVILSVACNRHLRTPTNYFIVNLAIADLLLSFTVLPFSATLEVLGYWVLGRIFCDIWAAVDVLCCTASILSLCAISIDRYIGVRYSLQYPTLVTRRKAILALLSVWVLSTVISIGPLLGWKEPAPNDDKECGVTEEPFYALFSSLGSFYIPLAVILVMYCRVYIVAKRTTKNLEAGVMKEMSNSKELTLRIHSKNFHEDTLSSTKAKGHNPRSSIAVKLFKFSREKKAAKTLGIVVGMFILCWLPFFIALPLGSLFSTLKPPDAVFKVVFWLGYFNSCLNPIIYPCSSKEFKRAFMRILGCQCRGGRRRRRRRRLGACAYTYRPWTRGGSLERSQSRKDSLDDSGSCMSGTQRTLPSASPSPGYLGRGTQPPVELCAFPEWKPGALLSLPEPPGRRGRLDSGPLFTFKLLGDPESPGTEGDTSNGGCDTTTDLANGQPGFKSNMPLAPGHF
T1 sequence (P23944 whole entry): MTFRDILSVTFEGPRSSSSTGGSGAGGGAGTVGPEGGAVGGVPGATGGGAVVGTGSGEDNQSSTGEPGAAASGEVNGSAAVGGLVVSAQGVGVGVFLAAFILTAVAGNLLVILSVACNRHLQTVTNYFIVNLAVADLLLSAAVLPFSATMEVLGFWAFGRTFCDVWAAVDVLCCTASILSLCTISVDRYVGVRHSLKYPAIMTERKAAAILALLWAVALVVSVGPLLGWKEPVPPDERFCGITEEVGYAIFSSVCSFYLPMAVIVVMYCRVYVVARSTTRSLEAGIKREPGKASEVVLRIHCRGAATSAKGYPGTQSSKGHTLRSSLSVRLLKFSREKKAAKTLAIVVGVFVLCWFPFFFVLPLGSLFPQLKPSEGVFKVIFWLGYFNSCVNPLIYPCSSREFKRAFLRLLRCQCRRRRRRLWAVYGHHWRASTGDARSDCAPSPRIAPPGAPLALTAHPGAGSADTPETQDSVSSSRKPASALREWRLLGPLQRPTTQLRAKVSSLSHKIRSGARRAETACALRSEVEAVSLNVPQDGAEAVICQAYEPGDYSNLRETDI
T1 sequence (P43140 whole entry): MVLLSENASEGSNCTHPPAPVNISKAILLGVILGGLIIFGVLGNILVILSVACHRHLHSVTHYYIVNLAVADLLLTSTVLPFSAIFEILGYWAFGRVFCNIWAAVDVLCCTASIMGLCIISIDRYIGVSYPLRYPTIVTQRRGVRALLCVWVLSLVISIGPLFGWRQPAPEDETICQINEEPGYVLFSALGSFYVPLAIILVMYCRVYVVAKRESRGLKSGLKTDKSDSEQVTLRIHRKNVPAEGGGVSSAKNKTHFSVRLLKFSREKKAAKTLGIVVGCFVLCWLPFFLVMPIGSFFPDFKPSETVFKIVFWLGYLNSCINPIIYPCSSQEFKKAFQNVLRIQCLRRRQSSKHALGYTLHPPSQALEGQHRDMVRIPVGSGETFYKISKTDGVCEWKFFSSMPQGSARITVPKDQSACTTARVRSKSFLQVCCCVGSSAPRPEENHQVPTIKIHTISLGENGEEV
In words: Potency to displace [3H]- WB-4101 from alpha-1 adrenergic receptor in rat striatum.

Assay [4] concerns Rattus norvegicus. The assay can be described thus: Induction of catalepsy in rats when administered intraperitoneally 4 hr prior to measurement to groups of nine animals. It counts as functional. The conditions noted are these: ip.
For assay [5], the target named is Serotonin 2 (5-HT2) receptor (Rattus norvegicus, UniProt P30994+P08909+P14842). The assay can be described thus: Potency to displace [3H]- Spiperone from 5-hydroxytryptamine 2 receptor […].
Assay [6] can be described thus: Activity calculated as Na+ ratio [IC50 (+Na+) / IC50 (-Na+)]. It counts as functional.

Sequence of D(2) dopamine receptor (P61169 whole entry): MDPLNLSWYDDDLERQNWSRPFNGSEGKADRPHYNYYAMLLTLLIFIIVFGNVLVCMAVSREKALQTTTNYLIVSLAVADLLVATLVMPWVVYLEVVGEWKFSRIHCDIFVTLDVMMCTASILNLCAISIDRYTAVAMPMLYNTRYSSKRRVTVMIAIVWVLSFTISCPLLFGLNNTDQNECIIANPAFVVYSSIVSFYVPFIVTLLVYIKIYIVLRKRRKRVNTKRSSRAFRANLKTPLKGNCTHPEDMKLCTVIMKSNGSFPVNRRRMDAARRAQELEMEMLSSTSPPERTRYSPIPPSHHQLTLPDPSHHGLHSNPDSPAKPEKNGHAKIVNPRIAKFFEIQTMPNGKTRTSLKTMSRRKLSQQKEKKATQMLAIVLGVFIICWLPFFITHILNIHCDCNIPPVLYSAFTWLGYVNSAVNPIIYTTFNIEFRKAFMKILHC

As a reminder, the Ki is the dissociation constant of the complex between target and ligand, obtained from inhibition or displacement. Read a high Ki as lower affinity. As a reminder, the ED50 is the dose that gives a 50% effect, or the effect in half of the subjects. Low readings indicate greater potency, high ones weaker potency. In the case of `COc1ccccc1N1CCN(Cc2ccc(-c3c(F)cccc3F)[nH]2)CC1`, the affinity at D(2) dopamine receptor, expressed as Ki, was 1.1 nM. Besides, in the assay on Rattus norvegicus [1], it took a dose of 30 mg/kg to reach the 50% effect level (ED50).

Consider `COc1ccccc1N1CCN(Cc2ccc(-c3ccc(C(C)C)cc3)[nH]2)CC1`, for which, at D(2) dopamine receptor, the inhibition constant Ki was found to be 59 nM. Further, the ED50 in the assay on Rattus norvegicus [2] was above 100 mg/kg.

Turning to `CCCn1c(CN2CCN(c3ccccc3OC)CC2)ccc1-c1ccc(F)cc1`, the Ki at D(2) dopamine receptor came out at 110 nM. In addition, the ED50 with Rattus norvegicus [2] was above 50 mg/kg.

The molecule `Fc1ccc(-c2ccc(CN3CCC(c4ccccc4)CC3)[nH]2)cc1` yielded a Ki on D(2) dopamine receptor of 11 nM. In the assay on Rattus norvegicus [2], this molecule came in with an ED50 above 100 mg/kg.

`c1ccc(-c2ccc(CN3CCN(c4cccc5c4OCCCO5)CC3)[nH]2)cc1` yielded a Ki at D(2) dopamine receptor of 0.68 nM. Moreover, the ED50 was 0.2 mg/kg in the assay with Mus musculus and 12 mg/kg with Rattus norvegicus [1].

Take `Fc1ccc(-c2ccc(CN3CCN(c4cccc5ccoc45)CC3)[nH]2)cc1` [ELOPIPRAZOLE]: the Ki was 220 nM in assay [3], 0.45 nM on D(2) dopamine receptor and 120 nM in assay [5]. Also, the ED50 with Rattus norvegicus [4] was above 54 mg/kg; with Mus musculus it was 2.3 mg/kg; with Rattus norvegicus [2], 5.4 mg/kg; in the assay with Rattus norvegicus [1], 2.5 mg/kg. The Na+ ratio in assay [6] was 2.

As for `Fc1ccc(-c2ccc(CN3CCN(c4ccc(F)cc4)CC3)[nH]2)cc1`, the inhibition constant (Ki) on D(2) dopamine receptor turned out to be 16 nM. Moreover, the ED50 with Rattus norvegicus [1] was found to be 40 mg/kg.

With `COc1ccccc1N1CCN(Cc2ccc(-c3ccc(C(F)(F)F)cc3)[nH]2)CC1`, the affinity on D(2) dopamine receptor, expressed as Ki, was 25 nM. Also, the ED50 with Rattus norvegicus [1] worked out at 45 mg/kg.

In turn, `Fc1ccc(-c2ccc(CN3CCN(c4cccc(C(F)(F)F)c4)CC3)[nH]2)cc1` came in with a Ki on D(2) dopamine receptor of 19 nM. In addition, the ED50 in the assay on Rattus norvegicus [1] came to 21 mg/kg.

On D(2) dopamine receptor, `COc1ccccc1N1CCN(Cc2ccc(-c3ccccc3)[nH]2)CC1` returned an inhibitory constant (Ki) of 0.76 nM. Besides, the ED50 turned out to be 0.4 mg/kg in the assay with Mus musculus, 1.9 mg/kg with Rattus norvegicus [2] and 13 mg/kg in the assay with Rattus norvegicus [1].

In the assay with Rattus norvegicus [4], `COc1ccccc1N1CCN(Cc2ccc(-c3ccc(F)cc3)[nH]2)CC1` showed an ED50 above 23 mg/kg. Further, on D(2) dopamine receptor, the affinity, expressed as Ki, was 0.96 nM. Besides, in assay [6], the Na+ ratio is 2.3.

For the molecule `COc1ccccc1C1CCN(Cc2ccc(-c3ccccc3)[nH]2)CC1`, the Ki at D(2) dopamine receptor is 1 nM. Also, the ED50 was found to be 1.7 mg/kg with Mus musculus and 100 mg/kg in the assay with Rattus norvegicus [1].

Regarding `COc1ccccc1N1CCN(Cc2ccc(-c3ccc(F)cc3)n2C)CC1`, on D(2) dopamine receptor, the affinity, expressed as Ki, was 20 nM.

`COc1ccccc1N1CCN(Cc2ccc(-c3ccccc3)n2-c2ccccc2)CC1` gave a Ki on D(2) dopamine receptor of 160 nM. In the assay with Rattus norvegicus [1], this molecule returned an ED50 above 100 mg/kg.

On D(2) dopamine receptor, `COc1ccccc1N1CCN(Cc2ccc(-c3ccc(F)cc3)n2CCO)CC1` displayed a Ki of 52 nM. This molecule also displayed an ED50 with Rattus norvegicus [1] above 100 mg/kg.

In the case of `O=C(NCCN1CCN(c2cccc3ccoc23)CC1)c1ccc(F)cc1`, the Ki came to 9.7 nM in assay [3], 7.1 nM at D(2) dopamine receptor and 29 nM in assay [5]. Further, the ED50 in the assay on Rattus norvegicus [4] is above 30 mg/kg; with Mus musculus, 1.8 mg/kg; in the assay with Rattus norvegicus [2] it was 2.7 mg/kg; in the assay with Rattus norvegicus [1] it was 21 mg/kg. Moreover, the Na+ ratio in assay [6] was 2.5.

`CCS(=O)(=O)c1ccc(OC)c(-c2ccc(CN3CCN(c4ccccc4OC)CC3)[nH]2)c1` returned a Ki at D(2) dopamine receptor of 7 nM.

Consider `COc1ccccc1N1CCN(CCCC(=O)c2ccc(F)cc2)CC1` [FLUANISONE], for which the affinity on D(2) dopamine receptor corresponds to a Ki of 2.4 nM. Also, the Na+ ratio in assay [6] was 1.4.

On to `COc1ccccc1-c1ccc(CN2CCN(c3ccccc3OC)CC2)[nH]1`, for which the affinity at D(2) dopamine receptor corresponds to a Ki of 6.5 nM. For the same molecule, in the assay with Rattus norvegicus [2], the ED50 is above 100 mg/kg.

`COc1ccccc1N1CCN(CCNC(=O)c2ccc(F)cc2)CC1` returned an ED50 in the assay on Rattus norvegicus [2] of 0.7 mg/kg.

On to `O=C(c1ccc(F)cc1)C1CCN(Cc2ccc(-c3ccc(F)cc3)[nH]2)CC1`, for which affinity at D(2) dopamine receptor was put at a Ki of 12 nM. This molecule registered an ED50 in the assay with Rattus norvegicus [1] of 34 mg/kg.

For `O=C(c1ccc(F)cc1)N1CCN(Cc2ccc(-c3ccc(F)cc3)[nH]2)CC1`, the Ki on D(2) dopamine receptor is 120 nM. This molecule registered an ED50 with Rattus norvegicus [1] of 34 mg/kg.

Take `OCCN1CCN(Cc2ccc(-c3ccc(F)cc3)[nH]2)CC1`: the Ki at D(2) dopamine receptor amounted to 31000 nM. Also, in the assay with Rattus norvegicus [2], the ED50 is above 100 mg/kg.

In turn, `COc1ccccc1N1CCN(Cc2ccc(-c3cccc(Cl)c3)[nH]2)CC1` showed a Ki on D(2) dopamine receptor of 4.4 nM. In the assay on Rattus norvegicus [1], this molecule had an ED50 above 100 mg/kg.

As for `O=C(CCCN1CCN(c2cccc3ccoc23)CC1)c1ccc(F)cc1`, the Ki in assay [3] came out at 1.5 nM; on D(2) dopamine receptor it was 5.1 nM; in assay [5] it was 8.2 nM. The ED50 is 5 mg/kg in the assay with Mus musculus, 5.6 mg/kg with Rattus norvegicus [2] and 7.6 mg/kg with Rattus norvegicus [1]. Further, in assay [6], the Na+ ratio is 1.4.
